Results as given in US9464092B2, “Transient protection of normal cells during chemotherapy” (G1 Therapeutics, Inc., priority 2013, dated 2016).

What was measured:
Format in all cases: biochemical
CDK4/CyclinD1 = CDK4/CyclinD1 (Homo sapiens (Human), UniProt P11802); assay: CDK4/CyclinD1 kinase assay (Nanosyn, Caliper microfluidic); details: Table 2; read-out: CDK4/CycD1 IC50
Description: (§1) Selected compounds disclosed herein were tested in CDK4/cyclinD1, CDK6/CycD3 CDK2/CycA and CDK2/cyclinE kinase assays by Nanosyn (Santa Clara, Calif.) to determine their inhibitory effect on these CDKs. The assays were performed using microfluidic kinase detection technology (Caliper Assay Platform). The compounds were tested in 12-point dose-response format in singlicate at Km for ATP. Phosphoacceptor substrate peptide concentration used was 1 μM for all assays and Staurosporine was used as the reference compound for all assays. Specifics of each assay are as described below:
CDK4/CyclinD1: Enzyme concentration: 1 nM; ATP concentration: 200 μM; Incubation time: 10 hr.

CDK2/CyclinE = CDK2/CyclinE (Homo sapiens (Human), UniProt P24941); assay: CDK2/CyclinE kinase assay (Nanosyn, Caliper microfluidic); details: Table 2; for IC50: read-out: CDK2/CycE IC50
Description: Selected compounds disclosed herein were tested in CDK4/cyclinD1, CDK6/CycD3 CDK2/CycA and CDK2/cyclinE kinase assays by Nanosyn (Santa Clara, Calif.) to determine their inhibitory effect on these CDKs. The assays were performed using microfluidic kinase detection technology (Caliper Assay Platform). The compounds were tested in 12-point dose-response format in singlicate at Km for ATP. Phosphoacceptor substrate peptide concentration used was 1 μM for all assays and Staurosporine was used as the reference compound for all assays.

CDK2/CyclinA = CDK2/CyclinA (Homo sapiens (Human), UniProt P24941); assay: CDK2/CyclinA kinase assay (Nanosyn, Caliper microfluidic); details: Table 2; for IC50: read-out: CDK2/CycA IC50
Description: as §1
CDK2/CyclinA: Enzyme concentration: 0.2 nM; ATP concentration: 50 μM; Incubation time: 3 hr.

Sequence of CDK4/CyclinD1 (P11802 whole entry, species assumed): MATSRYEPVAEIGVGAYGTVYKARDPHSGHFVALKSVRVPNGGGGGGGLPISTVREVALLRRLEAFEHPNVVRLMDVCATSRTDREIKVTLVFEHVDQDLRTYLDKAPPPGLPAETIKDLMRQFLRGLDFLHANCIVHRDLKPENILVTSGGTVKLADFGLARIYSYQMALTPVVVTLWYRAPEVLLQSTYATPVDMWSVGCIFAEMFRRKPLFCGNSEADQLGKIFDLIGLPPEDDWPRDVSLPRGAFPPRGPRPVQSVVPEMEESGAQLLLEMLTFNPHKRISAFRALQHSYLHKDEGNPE
Sequence of CDK4/CyclinD1 (P24385 whole entry partner, species assumed): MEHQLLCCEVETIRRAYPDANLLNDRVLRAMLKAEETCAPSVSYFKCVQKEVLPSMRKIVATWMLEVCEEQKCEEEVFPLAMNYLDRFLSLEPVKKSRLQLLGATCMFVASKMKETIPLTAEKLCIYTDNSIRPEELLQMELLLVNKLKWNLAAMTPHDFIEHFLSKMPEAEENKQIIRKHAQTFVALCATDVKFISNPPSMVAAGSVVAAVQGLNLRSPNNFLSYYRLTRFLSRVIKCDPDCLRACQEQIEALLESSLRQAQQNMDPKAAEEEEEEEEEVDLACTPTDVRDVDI

SMILES	IC50 (CDK4/CyclinD1)	Fold Selectivity (CDK2/CycE/CDK4) (CDK2/CyclinE)	IC50 (CDK2/CyclinE)	Fold Selectivity (CDK2/CycA/CDK4) (CDK2/CyclinA)	IC50 (CDK2/CyclinA)
CC(C)N1CCN(C(=O)c2ccc(Nc3ncc4cc5n(c4n3)C3(CCCCC3)CNC5=O)nc2)CC1 [II]	2 nM	184	367 nM	120	239 nM
CC1(C)CN(c2ccc(Nc3ncc4cc5n(c4n3)C3(CCCCC3)CNC5=O)nc2)CCN1 [I]	2 nM	1065	2120 nM	568	1130 nM
CCC(C)CN1[C@H](C)CN(c2ccc(Nc3ncc4cc5n(c4n3)C3(CCCC3)CNC5=O)nc2)C[C@@H]1C (some centres unmarked) [JJJ]	3.2 nM	1620	5200 nM	882	2830 nM
C[C@@H]1CN(c2ccc(Nc3ncc4cc5n(c4n3)C3(CCCCC3)CNC5=O)nc2)CCN1C[C@@H](C)O [J]	0.7 nM	7707	5110 nM	6546	4340 nM
CC(C)(C)CCN1CCN(c2ccc(Nc3ncc4cc5n(c4n3)C3(CCCC3)CNC5=O)nc2)CC1 [KKK]	1.3 nM	231	291 nM	69	87.3 nM
C[C@H]1CN(c2ccc(Nc3ncc4cc5n(c4n3)C3(CCCCC3)CNC5=O)nc2)CCN1 [KK]	2.3 nM	762	1760 nM	396	915 nM
CC1CCN(C2CCN(c3ccc(Nc4ncc5cc6n(c5n4)C4(CCCCC4)CNC6=O)nc3)CC2)C1 (centres unmarked) [K]	1 nM	1019	1070 nM	703	738 nM
CCN(CC)C1CCN(c2ccc(Nc3ncc4cc5n(c4n3)C3(CCCC3)CNC5=O)nc2)CC1 [LLL]	3.2 nM	509	1620 nM	1425	4530 nM
O=C1NCC2(CCCCC2)n2c1cc1cnc(Nc3ccc(C(=O)N4CCN(C5CCC5)CC4)cn3)nc12 [LL]	2 nM	103	202 nM	55	108 nM
CC(C)N1CCN(c2ccc(Nc3ncc4cc5n(c4n3)C3(CCCCC3)CNC5=O)nc2)C[C@H]1C [L]	5.7 nM	789	4530 nM	260	1490 nM
CCOCCN1CCN(c2ccc(Nc3ncc4cc5n(c4n3)C3(CCCC3)CNC5=O)nc2)CC1 [MMM]	3.2 nM	600	1890 nM	314	990 nM
C[C@@H]1CN(c2ccc(Nc3ncc4cc5n(c4n3)C3(CCCCC3)CNC5=O)nc2)C[C@H](C)N1C[C@@H](C)O [MM]	1.8 nM	1863	3390 nM	328	597 nM
C[C@H]1CN(c2ccc(Nc3ncc4cc5n(c4n3)C3(CCCCC3)CNC5=O)nc2)CCN1CCC(C)(C)C [M]	2.3 nM	1004	2280 nM	621	1410 nM
CC1CN(c2ccc(Nc3ncc4cc5n(c4n3)C3(CCCC3)CNC5=O)nc2)CCN1CC1CC1 (centres unmarked) [NNN]	1.4 nM	2154	2930 nM	743	1010 nM
C[C@@H]1CN(c2ccc(Nc3ncc4cc5n(c4n3)C3(CCCCC3)CNC5=O)nc2)CCN1C [NN]	3.7 nM	1274	4700 nM	423	1560 nM
O=C1NCC2(CCCC2)n2c1cc1cnc(Nc3ccc(C(=O)N4CCN(CC5CC5)CC4)cn3)nc12 [OOO]	2.4 nM	164	393 nM	85	203 nM
CC1CN(c2ccc(Nc3ncc4cc5n(c4n3)C3(CCCCC3)CNC5=O)nc2)C[C@@H](C)N1CC1CC1 (some centres unmarked) [OO]	9 nM	442	3980 nM	63	570 nM
CC(C)N1CCN(c2ccc(Nc3ncc4cc5n(c4n3)C3(CCCCC3)CNC5=O)nc2)CC1C (centres unmarked) [PP]	3.1 nM	1146	3600 nM	984	3090 nM
C[C@@H]1CN(c2ccc(Nc3ncc4cc5n(c4n3)C3(CCCCC3)CNC5=O)nc2)C[C@H](C)N1 [P]	3.3 nM	1085	3560 nM	308	1010 nM
CCN(CC)C1CCN(c2ccc(Nc3ncc4cc5n(c4n3)C3(CCCCC3)CNC5=O)nc2)C1 (centres unmarked) [QQ]	4.1 nM	746	3060 nM	627	2570 nM
CCN(CC)C1CCN(C2CCN(c3ccc(Nc4ncc5cc6n(c5n4)C4(CCCCC4)CNC6=O)nc3)CC2)C1 (centres unmarked) [RR]	1.2 nM	1374	1580 nM	603	693 nM
C[C@H]1CN(c2ccc(Nc3ncc4cc5n(c4n3)C3(CCCCC3)CNC5=O)nc2)CCN1C [R]	0.5 nM	3918	1920 nM	2776	1360 nM
O=C1NCC2(CCCC2)n2c1cc1cnc(Nc3ccc(N4CCOCC4)nn3)nc12 [SSS]	2 nM	1112	2280 nM	917	1880 nM
CN(C)C1CCN(c2ccc(Nc3ncc4cc5n(c4n3)C3(CCCCC3)CNC5=O)nn2)CC1 [SS]	0.8 nM	1865	1460 nM	1775	1390 nM
C[C@@H](O)CN1CCN(c2ccc(Nc3ncc4cc5n(c4n3)C3(CCCCC3)CNC5=O)nc2)CC1 [S]	1.7 nM	718	1250 nM	197	342 nM
CC(C)N1CCN(c2ccc(Nc3ncc4cc5n(c4n3)C3(CCCCC3)CNC5=O)nn2)CC1 [TT]	0.8 nM	1550	1260 nM	733	596 nM
C[C@@H](O)CN1CCN(c2ccc(Nc3ncc4cc5n(c4n3)C3(CCCC3)CNC5=O)nc2)C[C@@H]1C [VV]	3.3 nM	809	2630 nM	243	789 nM
C[C@@H]1CN(c2ccc(Nc3ncc4cc5n(c4n3)C3(CCCCC3)CNC5=O)nc2)CCN1 [V]	2.9 nM	1224	3500 nM	745	2130 nM
